{
  "source": "patent US20200390743A1",
  "about": "“Methods and Compositions For Improving Outcomes of Cancer Patients” (Reven IP HoldCo LLC, priority 2019, published 2020)",
  "origin": "cited, not measured here",
  "key": {"[1]": {"details": "rats, 100 mg/kg body weight daily"}, "[2]": {"details": "241 osteoporotic women"}},
  "data": [
    {"smiles": "CC(C)=CCC/C(C)=C/CC/C(C)=C/CC/C(C)=C/CC1=C(C)C(=O)c2ccccc2C1=O", "note": "[Vitamin K2]", "values": [
      {"measurement": "calcium in kidneys and aorta induced by megadose of synthetic vitamin D", "setting": "[1]", "result": "inhibited the increase in calcium"},
      {"measurement": "total cholesterol levels, lipid peroxidation, ester cholesterol deposition in the aorta and factor X activity in plasma", "setting": "compared to the control group", "result": "reduce"},
      {"measurement": "atherosclerotic plaque progression in the aorta and pulmonary arteries", "setting": "rabbits, 1-10 mg/kg daily for 10 weeks", "result": "inhibited the atherosclerotic plaque progression"},
      {"measurement": "fracture incidence", "setting": "[2]; 45 mg/day vitamin K2 and 150 mg elemental calcium, two years, 30% in control group", "result": 10, "unit": "%"},
      {"measurement": "lumbar bone mineral density", "setting": "[2]; 45 mg/day, after two years", "result": "maintain"}
    ]}
  ]
}
